Laboratory results: patent US20020006915A1, “Use of COX-2 inhibitors to treat sepsis, complications thereof, and EP receptor modulation” (priority 2000, published 2002)
Marks after values point to notes of the source that are not given here.

Experiments:
plasma PGE2 = assay: Plasma PGE2 of mice at 6 h after traumatic injury; type: in vivo, BALB/c mice; conditions: for PGE2 levels at 6 h: pooled serum n=6
Procedure: Vehicle mice were injected with a 4% DMSO solution. To evaluate the efficacy of NS-398 on plasma PGE2 levels, mouse blood was collected at 6 hours after injury±treatment. […] At 6 hours after trauma, plasma PGE2 levels were increased from […] to 49,733 […]).

COX-2 mRNA [1] = assay: COX-2 mRNA expression in LPS stimulated splenic macrophages by RT-PCR (3 doses within 24 h); type: in vivo, BALB/c mice; conditions: traumatized mice + NS-398, 3 doses within 24 h, day 7
Procedure: Isolated splenic macrophages were treated with lipopolysaccharide (LPS) (10 ng/ml) for six hours.
To evaluate the relative expression of COX-2 mRNA, splenic macrophages were treated as previously described and harvested by RT-PCR.

[2] = test system: BALB/c mice given a septic challenge by cecal ligation and puncture; assay: Survival after septic challenge (cecal ligation and puncture) on day 7 after trauma, 3 doses of NS-398 within 24 h; type: in vivo
Source text: A value of p<0.05 was considered significant. […] A value of p<0.05 was considered significant.

[3] = Body weight and splenocyte counts 7 days after trauma (NS-398 twice a day over 7 days); type: in vivo, BALB/c mice; conditions: for Body Wt.: day 7
Procedure: (§1) Animals, Experimental Protocol, NS-398 preparation were as described in Example I. Macrophages were prepared as described initially under “Macrophage Preparation ” in Example I. After lysis of erythrocytes with ammonium chloride solution and centrifugation as described in Example I, macrophages were further prepared by resuspending the pellet in RPMI-1640 (Gibco BRL, Life Technologies Inc) containing 2 mmol/L L-glutamine, 100 U/mL penicillin, 100 μg/mL streptomycin, 0.25 μg/mL amphotericin B, and 10% heat-inactivated fetal calf serum (Gibco BRL, Life Technologies Inc), counted via hemocytometer and diluted to a final concentration of 5×10^6 cells/mL, and plated in 96 well plates in a volume of 0.2 mL per well. After allowing macrophages to adhere for 2 hours, the remaining cells were suctioned off and the macrophages were cultured in the +/−1 ng LPS 055:B5 (Sigma, St. Louis, Mo.) per mL at 37° C. in 5% carbon dioxide incubators. Supernatants were harvested at 24 hours and stored at −70° C. until analysis for batch enzyme-linked immunosorbent assay processing to determine prostaglandin and cytokine production.
Body weight and splenocyte recovery after injury±NS-398 were recorded.
(§2) BALB/C mice (n=8/group) were given 10mg/kg NS398 intraperitoneally BID for 7 days, starting immediately after sham injury or trauma (femur fracture+40% hemorrhage). Four groups, sham+placebo (C); sham+NS398 (CN); trauma+placebo (T); or trauma+NS398 (TN) were studied. On day 7 after trauma, mice were sacrificed and splenic macrophages evaluated for PGE2, TNF-α and NO production (via Student's t-test). In a separate study, mice (n=10-11/group) were traumatized and given NS398 for 7 days. On day 7, cecal ligation and puncture was performed, and mice evaluated for survival over 3 weeks (via Log-rank test).

[4] = test system: LPS stimulated splenic macrophages; assay: Mediator production (PGE2, LTB4, TNF-α, NO, IL-6) by LPS stimulated splenic macrophages 7 days after trauma, NS-398 twice a day over 7 days; type: in vivo, BALB/c mice; conditions: for NO: mean ± SEM
Procedure: as §1
NO was measured indirectly by NO2^− concentration using the Greiss reagent system (Promega, Madison, Wis). Protein was quantified using the BCA protein reagent (Pierce, Rockford, Ill.) and all measurements were normalized to protein content per well.
as §2

COX-2 mRNA [5] = assay: COX-2 mRNA in splenic macrophages by RT-PCR (NS-398 over 7 days); type: in vivo, BALB/c mice; conditions: trauma + NS-398 over 7 days
Procedure: Isolated splenic macrophages were treated with LPS (10 ng/mL) for 6 hours. Extraction of mRNA was done with an RNA extraction kit (Qiagen, Inc.).

NF-κB = assay: Electrophoretic mobility shift assay of nuclear NF-κB in splenic macrophages; type: in vivo, BALB/c mice; conditions: NS-398 treatment after trauma, over 7 days
Procedure: NF-κB gel shift oligonucleotide 5′ AGTTGAGGGGACTTTCCCAGGC 3′ (Santa Cruz Laboratories, Santa Cruz, Calif.) was end labeled with (^32P)γATP using polynucleotide kinase T4 (Gibco BRL, Grand Island, N.Y.). End labeled probe was purified from unincorporated (^32P)-γATP using a purification column (Bio-Rad Laboratories) and recovered in tris-EDTA buffer. Samples consisted of adherent macrophages collected after 45 minutes stimulation with 10 ng/mL LPS. Adherent cells were scraped into 1 mL of cold HANKS balanced salt solution. The cell suspension was pelleted after centrifugation in a microcentrifuge for 10 seconds and resuspended in 400 μl cold Buffer A (10 mM HEPES-KOH pH 7.9 at 4° C., 1.5 mM MgCl2, 10 mM KCl, 0.5 mM dithiothreitol, 0.2 mM PMSF) by agitation of the tube. The cells were allowed to swell on ice for 10 minutes, and then vortexed for 10 seconds. Samples were centrifuged for 10 seconds and the supernatant fraction was saved at −70° C. for IκB analysis. The pellet was resuspended in 20-100 μl of cold buffer C (20 mM HEPES-KOH pH 7.9, 25% glycerol, 420 mM NaCl, 1.5 mM MgCl2. 0.2 mM EDTA, 0.5 mM dithiothreitol 0.2 mM PMSF) and incubated on ice for 20 minutes. […] Samples were subjected to electrophoretic separation on a non denaturing 5% poly-acrylamide gel at 30 mA using Tris borate EDTA for 45 minutes and analyzed by exposure to radiographic film (Kodak, Rochester, N.Y.).

[6] = C + NS398, 10 mg/kg i.p. BID for 7 days
[7] = T + NS398, 10 mg/kg i.p. BID for 7 days
[8] = injured mice + NS-398 over 7 days vs untreated injured, P<0.05

## CS(=O)(=O)Nc1ccc([N+](=O)[O-])cc1OC1CCCCC1 [NS-398, N-(2-cyclohexyloxy-4-nitrophenyl)methanesulfonamide]
Plasma PGE2; Control + NS-398, plasma
  PGE2 levels at 6 h: 35,961 pg/ml
Plasma PGE2; Trauma + NS-398, plasma
  PGE2 levels at 6 h: 29,902 pg/ml
Plasma PGE2; injured mice treated with NS-398 (TN), 6 hours after trauma
  plasma PGE2 levels: 29900 pg/mL
COX-2 mRNA [1]
  COX-2 mRNA levels relative to GAPDH: attenuated the levels of COX-2 mRNA to below control levels
COX-2 mRNA [1]; listed as NS398
  COX-2 mRNA levels relative to GAPDH: significant decreases
[2]; T + NS, 3 i.p. injections of 10 mg/kg, CLP on day 7, n=10-12
  survival: 92%#
[2]; control mice treated with NS-398
  survival: 66%
[2]; traumatized mice treated with NS-398
  survival: 92%
[3]; Control + NS-398, twice a day over 7 days
  Body Wt.: 18.3 ± 0.3 g
[3]; Trauma + NS-398, twice a day over 7 days
  Body Wt.: 16.7 ± 0.7 g
[3]; control versus trauma+NS-398 mice, 7 days after trauma
  difference in body weight: no significant difference
[4]; [6]
  TNF-α: 2.6 ± 0.3 pg/μg protein
  NO: 54.8 ± 2.1 nmol/μg protein
[4]; NS-398 given after injury, over 7 days
  LTB4 levels (in words): did not restore LTB4 levels to those seen in control
[4]; [7]
  TNF-α: 2.6 ± 0.3 pg/μg protein
  NO: 48.0 ± 3.3 nmol/μg protein
[4]; injured mice + NS398 (TN), 10 mg/kg i.p. BID for 7 days
  PGE2 production: 3.1±0.4 pg/μg protein
[4]; [8]
  IL-6 production (in words): significantly attenuated production
  NO production (in words): significantly attenuated production
  TNF-α production (in words): significantly attenuated production
[4]; traumatized mice + NS-398 over 7 days, P<0.05
  PGE2 production by splenocytes/macrophages (in words): produce significantly less PGE2
COX-2 mRNA [5]
  COX-2 mRNA levels: decreased this induction
NF-κB
  NF-κB activation: a decrease in NF-κB activation
